In ChEMBL document CHEMBL1154879, “Discovery of (thienopyrimidin-2-yl)aminopyrimidines as potent, selective, and orally available pan-PI3-kinase and dual pan-PI3-kinase/mTOR inhibitors for the treatment of cancer” (J Med Chem, 2010):
Calls of active or inactive are those of the source. The calls are words filed in the database; no cut-off is given here.

Key:
[1] = biological target: Phosphatidylinositol 4-phosphate 3-kinase C2 domain-containing subunit alpha (Homo sapiens) (UniProt O00443); experiment: Inhibition of PIK3C2alpha at 1 uM
[2] = biological target: Phosphatidylinositol 4-phosphate 3-kinase C2 domain-containing subunit beta (Homo sapiens) (UniProt O00750); experiment: Inhibition of PIK3C2beta at 1 uM
[3] = biological target: Phosphatidylinositol 3-kinase catalytic subunit type 3 (Homo sapiens) (UniProt Q8NEB9); experiment: Inhibition of VPS34 at 1 uM
[4] = biological target: Phosphatidylinositol 4-kinase beta (Homo sapiens) (UniProt Q9UBF8); experiment: Inhibition of PI4Kbeta at 1 uM
PC-3 [5] = experiment: Antitumor activity against human PC3 cells xenografted in nu/nu mouse assessed as inhibition of tumor growth at 10 mg/kg, po qd for 14 days; assay type: functional; conditions: PC-3, 336 h, read-out: TGI
PC-3 [6] = experiment: Antitumor activity against human PC3 cells xenografted in nu/nu mouse assessed as inhibition of tumor growth at 1 mg/kg, po qd for 14 days; assay type: functional, organism-based; set-up: dose 1 mg/kg
Mus musculus [7] = experiment: Inhibition of PI3K/Akt/mTOR pathway signaling in PI3Kalpha mutant expressing human MCF7.1 cells xenografted nu/nu mouse assessed as inhibition of Akt Ser473 phosphorylation at 10 mg/kg, po qd for 21 days measured 1 hr after last administered dose on day 21 by electrochemiluminescence assay; assay type: functional
Mus musculus [8] = experiment: Inhibition of PI3K/Akt/mTOR pathway signaling in PI3Kalpha mutant expressing human MCF7.1 cells xenografted nu/nu mouse assessed as inhibition of Akt Ser473 phosphorylation at 10 mg/kg, po qd for 21 days measured 4 hrs after last administered dose on day 21 by electrochemiluminescence assay; assay type: functional
Mus musculus [9] = experiment: Inhibition of PI3K/Akt/mTOR pathway signaling in PI3Kalpha mutant expressing human MCF7.1 cells xenografted nu/nu mouse assessed as inhibition of Pras40 Thr246 phosphorylation at 10 mg/kg, po qd for 21 days measured 1 hr after last administered dose on day 21 by ELISA; assay type: functional
Mus musculus [10] = experiment: Inhibition of PI3K/Akt/mTOR pathway signaling in PI3Kalpha mutant expressing human MCF7.1 cells xenografted nu/nu mouse assessed as inhibition of Pras40 Thr246 phosphorylation at 10 mg/kg, po qd for 21 days measured 4 hrs after last administered dose on day 21 by ELISA; assay type: functional
PC-3 [11] = experiment: Antitumor activity against human PC3 cells xenografted in nu/nu mouse assessed as reduction of tumor volume at 10 mg/kg, po qd for 14 days; assay type: functional; set-up: scale not given: the % may be the effect or the level left
Mus musculus [12] = experiment: Toxicity in human PC3 cells xenografted nu/nu mouse assessed as body weight loss at 1 mg/kg, po qd for 14 days; assay type: organism-based, PC-3; set-up: dose 1 mg/kg, route oral; conditions: in vivo, 336 h
Mus musculus [13] = experiment: Toxicity in human PC3 cells xenografted nu/nu mouse assessed as body weight loss at 10 mg/kg, po qd for 14 days; assay type: organism-based, PC-3; set-up: dose 10 mg/kg, route oral; conditions: in vivo, 336 h
[14] = Antitumor activity against human MCF7.1 cells expressing PI3Kalpha mutant xenografted in nu/nu mouse assessed as inhibition of tumor growth at 10 mg/kg, po qd for 21 days; assay type: functional; conditions: MCF7.1, 504 h, read-out: TGI
Mus musculus [15] = experiment: Toxicity in human MCF7.1 cells expressing PI3Kalpha mutant xenografted nu/nu mouse assessed as body weight loss at 10 mg/kg, po qd for 21 days; assay type: organism-based; set-up: dose 10 mg/kg, route oral; conditions: in vivo, 504 h
Mus musculus [16] = experiment: Inhibition of PI3K/Akt/mTOR pathway signaling in PI3Kalpha mutant expressing human MCF7.1 cells xenografted nu/nu mouse assessed as inhibition of S6RP Ser235/236 phosphorylation at 10 mg/kg, po qd for 21 days measured 1 hr after last administered dose on day 21 by electrochemiluminescence assay; assay type: functional
Mus musculus [17] = experiment: Inhibition of PI3K/Akt/mTOR pathway signaling in PI3Kalpha mutant expressing human MCF7.1 cells xenografted nu/nu mouse assessed as inhibition of S6RP Ser235/236 phosphorylation at 10 mg/kg, po qd for 21 days measured 4 hrs after last administered dose on day 21 by electrochemiluminescence assay; assay type: functional
[18] = Oral bioavailability in Beagle dog at 2 mg/kg, po; assay type: ADME, organism-based, Canis lupus familiaris; conditions: in vivo
[19] = Protein binding in Beagle dog plasma; assay type: ADME, cell-free, Canis lupus familiaris; conditions: read-out: PPB (converted)
[20] = Volume of distribution at steady state in Sprague-Dawley rat at 1 mg/kg, iv; assay type: ADME, organism-based; set-up: dose 1 mg/kg, route intravenous; conditions: in vivo, read-out: Vdss
[21] = Half life in nu/nu mouse at 5 mg/kg, po; assay type: ADME, organism-based; set-up: dose 5 mg/kg, route oral; conditions: in vivo
Aurora kinase A = biological target: T1, Aurora kinase A (Homo sapiens, UniProt O14965); experiment: Inhibition of Aurora A kinase
T1 sequence (O14965 whole entry): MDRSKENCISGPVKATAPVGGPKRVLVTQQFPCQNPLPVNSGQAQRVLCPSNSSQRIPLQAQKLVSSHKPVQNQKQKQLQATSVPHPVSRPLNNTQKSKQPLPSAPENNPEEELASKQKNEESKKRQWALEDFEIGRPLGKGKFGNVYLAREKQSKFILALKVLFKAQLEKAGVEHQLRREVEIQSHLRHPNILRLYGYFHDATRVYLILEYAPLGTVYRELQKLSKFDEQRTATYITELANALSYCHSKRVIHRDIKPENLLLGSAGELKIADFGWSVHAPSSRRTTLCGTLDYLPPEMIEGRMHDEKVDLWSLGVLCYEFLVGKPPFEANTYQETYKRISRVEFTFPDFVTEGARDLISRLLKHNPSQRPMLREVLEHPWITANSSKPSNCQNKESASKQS

[22] = biological target: Mitogen-activated protein kinase kinase kinase 9 (Homo sapiens, UniProt P80192); experiment: Inhibition of MLK1
[23] = biological target: Tyrosine-protein kinase SYK (Homo sapiens, UniProt P43405); experiment: Inhibition of SYK
PC-3 [24] = experiment: Antiproliferative activity against human PC3 cells deficient in PTEN in after 3 to 4 days; assay type: functional, cell-based
[25] = Clearance in Sprague-Dawley rat at 1 mg/kg, iv; assay type: ADME, organism-based; set-up: dose 1 mg/kg, route intravenous; conditions: in vivo
[26] = Oral bioavailability in Sprague-Dawley rat at 2 mg/kg; assay type: ADME, organism-based; conditions: in vivo
[27] = Clearance in Sprague-Dawley rat liver microsomes; assay type: ADME, Microsome
[28] = Clearance in nu/nu mouse at 1 mg/kg, iv; assay type: ADME, organism-based; set-up: dose 1 mg/kg, route intravenous; conditions: in vivo
[29] = Clearance in cynomolgus monkey at 1 mg/kg, iv; assay type: ADME, organism-based, Macaca fascicularis; set-up: dose 1 mg/kg, route intravenous; conditions: in vivo
[30] = Clearance in Beagle dog at 1 mg/kg, iv; assay type: ADME, organism-based, Canis lupus familiaris; set-up: dose 1 mg/kg, route intravenous; conditions: in vivo
[31] = Volume of distribution at steady state in nu/nu mouse at 1 mg/kg, iv; assay type: ADME, organism-based; set-up: dose 1 mg/kg, route intravenous; conditions: in vivo, read-out: Vdss
[32] = Volume of distribution at steady state in cynomolgus monkey at 1 mg/kg, iv; assay type: ADME, organism-based, Macaca fascicularis; set-up: dose 1 mg/kg, route intravenous; conditions: in vivo, read-out: Vdss
[33] = Volume of distribution at steady state in Beagle dog at 1 mg/kg, iv; assay type: ADME, organism-based, Canis lupus familiaris; set-up: dose 1 mg/kg, route intravenous; conditions: in vivo, read-out: Vdss
[34] = Cmax in nu/nu mouse at 5 mg/kg, po; assay type: ADME, organism-based; set-up: dose 5 mg/kg, route oral; conditions: in vivo
[35] = AUC in nu/nu mouse at 5 mg/kg, po; assay type: ADME, organism-based; set-up: dose 5 mg/kg, route oral; conditions: plasma
[36] = Oral bioavailability in nu/nu mouse at 5 mg/kg, po; assay type: ADME, organism-based; conditions: in vivo
[37] = Protein binding in mouse plasma; assay type: ADME, cell-free; conditions: read-out: PPB (converted)
[38] = Cmax in Sprague-Dawley rat at 5 mg/kg, po; assay type: ADME, organism-based; set-up: dose 5 mg/kg, route oral; conditions: in vivo
[39] = AUC in Sprague-Dawley rat at 5 mg/kg, po; assay type: ADME, organism-based; set-up: dose 5 mg/kg, route oral; conditions: plasma
[40] = Oral bioavailability in Sprague-Dawley rat at 5 mg/kg, po; assay type: ADME, organism-based; conditions: in vivo
[41] = Protein binding in rat plasma; assay type: ADME, cell-free; conditions: read-out: PPB (converted)
[42] = Cmax in cynomolgus monkey at 2 mg/kg, po; assay type: ADME, organism-based, Macaca fascicularis; set-up: dose 2 mg/kg, route oral; conditions: in vivo
[43] = AUC in cynomolgus monkey at 2 mg/kg, po; assay type: ADME, organism-based, Macaca fascicularis; set-up: dose 2 mg/kg, route oral; conditions: plasma
[44] = Oral bioavailability in cynomolgus monkey at 2 mg/kg, po; assay type: ADME, organism-based, Macaca fascicularis; conditions: in vivo
[45] = Protein binding in cynomolgus monkey plasma; assay type: ADME, cell-free, Macaca fascicularis; conditions: read-out: PPB (converted)
[46] = Cmax in Beagle dog at 2 mg/kg, po; assay type: ADME, organism-based, Canis lupus familiaris; set-up: dose 2 mg/kg, route oral; conditions: in vivo
[47] = AUC in Beagle dog at 2 mg/kg, po; assay type: ADME, organism-based, Canis lupus familiaris; set-up: dose 2 mg/kg, route oral; conditions: plasma
[48] = biological target: Serine/threonine-protein kinase mTOR (Homo sapiens, UniProt P42345)

Sequence of Phosphatidylinositol 4-kinase beta (Homo sapiens) (Q9UBF8 2-816 limits assumed): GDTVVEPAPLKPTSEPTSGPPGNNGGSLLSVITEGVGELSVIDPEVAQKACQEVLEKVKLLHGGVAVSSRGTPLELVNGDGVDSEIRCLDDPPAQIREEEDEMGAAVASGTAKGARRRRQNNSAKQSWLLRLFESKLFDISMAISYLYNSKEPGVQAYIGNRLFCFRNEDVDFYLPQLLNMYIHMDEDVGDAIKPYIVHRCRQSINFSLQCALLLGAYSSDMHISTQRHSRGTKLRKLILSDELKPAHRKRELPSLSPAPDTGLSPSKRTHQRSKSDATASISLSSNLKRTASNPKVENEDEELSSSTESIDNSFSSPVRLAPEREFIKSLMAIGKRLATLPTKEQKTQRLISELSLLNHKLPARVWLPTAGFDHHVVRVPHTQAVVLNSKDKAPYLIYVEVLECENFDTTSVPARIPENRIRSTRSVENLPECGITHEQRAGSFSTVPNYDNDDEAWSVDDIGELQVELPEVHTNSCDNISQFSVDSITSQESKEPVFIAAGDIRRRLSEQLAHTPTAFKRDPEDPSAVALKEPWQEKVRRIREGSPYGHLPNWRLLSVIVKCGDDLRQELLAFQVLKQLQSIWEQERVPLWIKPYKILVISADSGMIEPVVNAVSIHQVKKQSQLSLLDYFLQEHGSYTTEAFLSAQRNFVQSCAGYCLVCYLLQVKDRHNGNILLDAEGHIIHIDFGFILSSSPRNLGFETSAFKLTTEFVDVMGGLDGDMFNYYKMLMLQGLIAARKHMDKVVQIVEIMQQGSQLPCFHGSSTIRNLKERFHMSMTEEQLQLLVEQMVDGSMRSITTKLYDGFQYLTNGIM
Sequence of Mitogen-activated protein kinase kinase kinase 9 (P80192 whole entry): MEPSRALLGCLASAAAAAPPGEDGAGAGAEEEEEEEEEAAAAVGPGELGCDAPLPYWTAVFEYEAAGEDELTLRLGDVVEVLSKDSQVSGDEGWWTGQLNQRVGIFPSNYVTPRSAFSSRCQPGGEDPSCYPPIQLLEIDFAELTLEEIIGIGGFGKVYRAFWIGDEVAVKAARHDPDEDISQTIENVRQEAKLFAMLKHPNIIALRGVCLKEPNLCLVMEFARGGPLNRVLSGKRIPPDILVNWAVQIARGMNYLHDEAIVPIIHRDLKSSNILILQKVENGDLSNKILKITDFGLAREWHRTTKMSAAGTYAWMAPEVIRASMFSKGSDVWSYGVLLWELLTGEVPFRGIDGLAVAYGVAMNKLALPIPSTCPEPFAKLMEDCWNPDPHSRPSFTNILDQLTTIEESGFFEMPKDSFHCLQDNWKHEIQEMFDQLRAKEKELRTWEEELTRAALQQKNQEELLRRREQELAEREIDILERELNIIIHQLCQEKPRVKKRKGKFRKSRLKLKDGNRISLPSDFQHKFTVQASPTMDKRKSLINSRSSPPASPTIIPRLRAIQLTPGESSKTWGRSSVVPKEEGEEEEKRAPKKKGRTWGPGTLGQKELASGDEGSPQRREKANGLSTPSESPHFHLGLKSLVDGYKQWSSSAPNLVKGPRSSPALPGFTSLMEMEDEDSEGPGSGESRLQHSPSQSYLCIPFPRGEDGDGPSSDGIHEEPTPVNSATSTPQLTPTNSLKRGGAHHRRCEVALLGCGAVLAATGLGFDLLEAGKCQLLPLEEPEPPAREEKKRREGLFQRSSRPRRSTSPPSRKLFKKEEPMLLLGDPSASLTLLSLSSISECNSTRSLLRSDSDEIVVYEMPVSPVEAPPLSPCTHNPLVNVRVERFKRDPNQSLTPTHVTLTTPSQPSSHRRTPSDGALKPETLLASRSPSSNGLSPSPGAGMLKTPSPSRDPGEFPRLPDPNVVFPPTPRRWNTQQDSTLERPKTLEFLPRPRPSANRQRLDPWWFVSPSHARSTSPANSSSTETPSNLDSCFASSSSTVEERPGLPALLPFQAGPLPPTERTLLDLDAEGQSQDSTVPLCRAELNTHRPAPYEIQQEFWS
Sequence of Phosphatidylinositol 3-kinase catalytic subunit type 3 (Homo sapiens) (Q8NEB9 whole entry): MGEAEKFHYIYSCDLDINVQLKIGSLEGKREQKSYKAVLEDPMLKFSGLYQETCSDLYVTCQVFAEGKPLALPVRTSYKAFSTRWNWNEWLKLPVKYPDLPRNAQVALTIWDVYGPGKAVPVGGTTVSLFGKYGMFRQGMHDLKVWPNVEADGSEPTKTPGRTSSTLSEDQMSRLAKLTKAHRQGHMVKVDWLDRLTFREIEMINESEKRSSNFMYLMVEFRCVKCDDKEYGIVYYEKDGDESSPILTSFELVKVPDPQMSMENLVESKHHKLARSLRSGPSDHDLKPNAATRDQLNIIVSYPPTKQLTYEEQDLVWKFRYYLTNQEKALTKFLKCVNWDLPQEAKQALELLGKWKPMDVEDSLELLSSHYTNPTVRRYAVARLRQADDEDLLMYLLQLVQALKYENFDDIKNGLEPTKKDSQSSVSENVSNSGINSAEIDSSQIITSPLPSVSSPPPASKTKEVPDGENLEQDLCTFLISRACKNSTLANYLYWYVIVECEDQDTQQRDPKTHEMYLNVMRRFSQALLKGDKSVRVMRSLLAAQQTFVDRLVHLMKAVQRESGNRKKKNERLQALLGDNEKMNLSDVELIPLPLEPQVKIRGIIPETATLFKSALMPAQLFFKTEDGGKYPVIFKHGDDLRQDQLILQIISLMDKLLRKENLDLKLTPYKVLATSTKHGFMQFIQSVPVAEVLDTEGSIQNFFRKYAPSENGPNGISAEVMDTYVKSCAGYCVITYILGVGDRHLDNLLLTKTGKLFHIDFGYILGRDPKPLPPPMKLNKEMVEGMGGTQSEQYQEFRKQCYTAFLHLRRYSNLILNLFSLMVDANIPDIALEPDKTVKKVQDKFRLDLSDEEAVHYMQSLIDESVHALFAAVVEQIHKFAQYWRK
Sequence of Phosphatidylinositol 4-phosphate 3-kinase C2 domain-containing subunit beta (Homo sapiens) (O00750 whole entry, the tested form may be a part): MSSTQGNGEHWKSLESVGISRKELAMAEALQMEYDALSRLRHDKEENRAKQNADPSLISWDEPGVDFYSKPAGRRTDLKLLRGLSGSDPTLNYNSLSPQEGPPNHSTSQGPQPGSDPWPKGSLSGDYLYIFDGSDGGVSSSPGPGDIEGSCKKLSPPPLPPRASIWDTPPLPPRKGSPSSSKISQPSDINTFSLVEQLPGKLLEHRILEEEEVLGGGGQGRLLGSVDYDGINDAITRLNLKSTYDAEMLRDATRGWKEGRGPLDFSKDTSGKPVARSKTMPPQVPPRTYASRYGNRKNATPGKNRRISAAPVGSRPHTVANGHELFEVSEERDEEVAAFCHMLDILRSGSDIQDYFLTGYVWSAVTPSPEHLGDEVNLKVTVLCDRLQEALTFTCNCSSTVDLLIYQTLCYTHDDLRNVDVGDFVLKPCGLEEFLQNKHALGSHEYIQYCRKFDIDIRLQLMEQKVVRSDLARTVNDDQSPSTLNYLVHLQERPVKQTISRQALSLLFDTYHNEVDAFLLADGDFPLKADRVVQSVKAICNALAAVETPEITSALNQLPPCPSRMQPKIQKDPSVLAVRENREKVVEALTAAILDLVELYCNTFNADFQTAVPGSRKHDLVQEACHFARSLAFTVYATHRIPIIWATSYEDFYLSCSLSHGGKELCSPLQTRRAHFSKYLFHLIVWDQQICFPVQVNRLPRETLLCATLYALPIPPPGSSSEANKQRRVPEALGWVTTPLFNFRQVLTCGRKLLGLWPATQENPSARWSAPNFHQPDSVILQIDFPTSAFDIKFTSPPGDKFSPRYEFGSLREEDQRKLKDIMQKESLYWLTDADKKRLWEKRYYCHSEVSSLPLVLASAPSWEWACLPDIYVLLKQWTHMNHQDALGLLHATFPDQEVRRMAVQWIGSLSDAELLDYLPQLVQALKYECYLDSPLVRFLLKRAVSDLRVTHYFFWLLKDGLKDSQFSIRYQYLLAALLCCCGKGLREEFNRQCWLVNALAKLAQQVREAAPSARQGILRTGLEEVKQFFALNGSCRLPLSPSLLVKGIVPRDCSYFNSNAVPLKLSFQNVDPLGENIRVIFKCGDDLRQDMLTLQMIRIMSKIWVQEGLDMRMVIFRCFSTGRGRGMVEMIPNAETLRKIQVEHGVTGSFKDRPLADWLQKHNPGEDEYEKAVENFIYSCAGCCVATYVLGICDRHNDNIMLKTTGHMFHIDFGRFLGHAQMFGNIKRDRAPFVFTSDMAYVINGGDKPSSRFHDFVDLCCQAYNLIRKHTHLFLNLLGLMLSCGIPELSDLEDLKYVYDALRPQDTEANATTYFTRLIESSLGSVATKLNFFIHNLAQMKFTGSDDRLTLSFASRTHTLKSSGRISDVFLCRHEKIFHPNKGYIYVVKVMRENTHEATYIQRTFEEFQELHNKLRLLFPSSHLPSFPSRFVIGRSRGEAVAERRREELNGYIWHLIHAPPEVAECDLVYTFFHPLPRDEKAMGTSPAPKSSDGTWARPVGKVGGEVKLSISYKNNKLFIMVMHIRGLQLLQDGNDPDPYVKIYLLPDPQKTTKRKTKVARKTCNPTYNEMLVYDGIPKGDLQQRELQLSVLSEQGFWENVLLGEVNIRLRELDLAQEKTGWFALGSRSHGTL

inhibition [1]: 65% | inhibition [2]: 78% | inhibition [3]: inactive | inhibition [4]: inactive | bioavailability [18]: 100% | fraction unbound [19]: 0.27 | Vd [20]: 2.8 L/kg | half-life [21]: 3.6 h | IC50 (Aurora kinase A): > 10000 nM | IC50 [22]: 591 nM | IC50 [23]: 371 nM | IC50 (PC-3 [24]): 330 nM | clearance [25]: 9 mL/min/kg | bioavailability [26]: 83% | CLint scaled [27]: 23 mL/min/kg | clearance [28]: 17 mL/min/kg | clearance [29]: 15 mL/min/kg | clearance [30]: 1.6 mL/min/kg | Vd [31]: 2.8 L/kg | Vd [32]: 3 L/kg | Vd [33]: 1.6 L/kg | Cmax [34]: 2100 nM | AUC [35]: 14 µM·h | bioavailability [36]: 100% | fraction unbound [37]: 0.36 | Cmax [38]: 2200 nM | AUC [39]: 21 µM·h | bioavailability [40]: 83% | fraction unbound [41]: 0.51 | Cmax [42]: 1100 nM | AUC [43]: 3.8 µM·h | bioavailability [44]: 62% | fraction unbound [45]: 0.21 | Cmax [46]: 4400 nM | AUC [47]: 63 µM·h | IC50 [48]: 30 nM
Structure (SMILES): CC(C)(O)c1cc2nc(-c3cnc(N)nc3)nc(N3CCOCC3)c2s1
inhibition in vivo at 10 mg/kg (PC-3 [5]): 89% | Activity (PC-3 [6]): inactive | inhibition in vivo at 10 mg/kg (Mus musculus [7]): 80% | inhibition in vivo at 10 mg/kg (Mus musculus [8]): 73% | inhibition in vivo at 10 mg/kg (Mus musculus [9]): 98% | inhibition in vivo at 10 mg/kg (Mus musculus [10]): 88% | Activity (PC-3 [11]): 89% | Activity (Mus musculus [12]): Non-toxic | Activity (Mus musculus [13]): Non-toxic | inhibition in vivo at 10 mg/kg [14]: 73% | Activity (Mus musculus [15]): Non-toxic | inhibition in vivo at 10 mg/kg (Mus musculus [16]): 81% | inhibition in vivo at 10 mg/kg (Mus musculus [17]): 75%
